Results published in US7872016B2, “Method for treating skeletal disorders resulting from FGFR malfunction” (Yale University, priority 2004, dated 2011).
“Also recorded” adds a separate entry of the source.

Legend:
[1] = test system: FRS2α; settings: unstimulated cells treated with the MEK inhibitor; cited from earlier work
[2] = test system: MAP Kinase signaling; experiment: MAP Kinase signaling in mutant cells expressing constitutively activated Crouzon-like mutant Fgfr2c isoform; format: cell-based; settings: results not shown
Experimental: (§1) We first tested the effect of PLX052 in vitro for blocking the activation of FGFR2. Cells were pretreated for 5 minutes with the compound before stimulation. […] We further tested the ability of PLX052 in blocking the FRS2 phosphorylation in mutant cells expressing constitutively activated Crouzon-like mutant Fgfr2c isoform.

[3] = test system: FRS2α; experiment: FRS2 phosphorylation in mutant cells expressing constitutively activated Crouzon-like mutant Fgfr2c isoform; format: cell-based; settings: results not shown
Experimental: as §1

[4] = test system: coronal suture of Crouzon-like mutant mice calvaria; experiment: Calvaria organ culture, Crouzon-like mutant mice: coronal suture fusion; format: cell-based, mouse; settings: for premature fusion of coronal suture of mutant mice calvaria: cultured 21 days
Experimental: (§2) FIGS. 15A-15D show results of in vitro culture of calvaria with FGFR inhibitor PLX052. Calvaria harvested from the Crouzon mutant and wild type E18.5 day old embryos were cultured in DMEM medium containing 10% FCS supplemented with ascorbic acid at 100 μg/ml and 1 μM PLX052 in 24 well plates. Medium was changed on alternate days along with the inhibitor. Controls were cultured with the vehicle only (0.2% DMSO). Calvaria were cultured for 14 days. After the specified time, calvaria were fixed in 10% buffered formalin, dehydrated followed by infiltration and embedding in methylmethacrylate plastic. Blocks were cut perpendicular to the coronal suture, that passes through the frontal bone (anterior side) and the parietal bone (posterior side). […] sections were collected and stained with toludine blue (FIG. 15.2, left panels). Adjacent sections were stained for minerals of the bone matrix using Van Kossa followed by methyl green counter staining. (A) wild type, and (B), mutant calvaria cultured with the vehicle alone (0.2% DMSO). Note the open suture in the wild type (A) and the fused suture in the mutant (B) cultured calvaria. (C), wild type and (D), mutant cultured with 1 μM PLX052 (in 0.2% DMSO). The left panels [(i), (iii)] are toluidine blue staining and the right panels [(ii), (iv)] are Van Kossa with methyl green counter staining. Lower panels [(iii), (iv)] are the higher magnification of the sutures shown in the boxed region of the upper panels [(i), (ii)].
(§3) PLX052 prevents cranial suture fusion in vitro. Next, we tested the ability of the PLX052 to prevent craniosynostosis in calvaria organ culture from wt and Crouzon-like mutant mice (FIG. 15). […] The calavria organ culture experiments were repeated with two different concentrations of PLX052 (1 μM and 5 μM) and cultured for extended period of time (21 days) to assess the dose response for this inhibitor (see below). […] Higher concentrations of PLX052 (50 μM and above) have caused extensive cell death within 24 hours in cultured cells. […]

[5] = test system: cultured cells; experiment: Cell death in cultured cells; format: cell-based; settings: within 24 hours
Experimental: PLX052 prevents cranial suture fusion in vitro. Next, we tested the ability of the PLX052 to prevent craniosynostosis in calvaria organ culture from wt and Crouzon-like mutant mice (FIG. 15). […] The calavria organ culture experiments were repeated with two different concentrations of PLX052 (1 μM and 5 μM) and cultured for extended period of time (21 days) to assess the dose response for this inhibitor (see below). […] Higher concentrations of PLX052 (50 μM and above) have caused extensive cell death within 24 hours in cultured cells. Therefore, it is feasible to use limited amount of inhibitor to attenuate the abnormal signaling from the mutant receptors without causing adverse effect on the normal signaling pathways.

[6] = test system: wild type suture (calvaria); experiment: Calvaria organ culture, wild type mice: suture development; format: cell-based, mouse; settings: for normal development of the sutures in the wild type: cultured 21 days
Experimental: as §2, §3

[7] = biological target: T1, FGFR2 (Mus musculus, UniProt P21803); experiment: Blocking ligand-stimulated tyrosine autophosphorylation of FLAG-tagged FGFR2 in 3T3 cells (IP / anti-pTyr immunoblot); format: cell-based; settings: 3T3 cells pretreated 5 minutes, then ligand stimulated 5 minutes at 37° C.
T1 construct: expressed in transfected cells; host or cells: 3T3 cells
T1 sequence (P21803 22-821): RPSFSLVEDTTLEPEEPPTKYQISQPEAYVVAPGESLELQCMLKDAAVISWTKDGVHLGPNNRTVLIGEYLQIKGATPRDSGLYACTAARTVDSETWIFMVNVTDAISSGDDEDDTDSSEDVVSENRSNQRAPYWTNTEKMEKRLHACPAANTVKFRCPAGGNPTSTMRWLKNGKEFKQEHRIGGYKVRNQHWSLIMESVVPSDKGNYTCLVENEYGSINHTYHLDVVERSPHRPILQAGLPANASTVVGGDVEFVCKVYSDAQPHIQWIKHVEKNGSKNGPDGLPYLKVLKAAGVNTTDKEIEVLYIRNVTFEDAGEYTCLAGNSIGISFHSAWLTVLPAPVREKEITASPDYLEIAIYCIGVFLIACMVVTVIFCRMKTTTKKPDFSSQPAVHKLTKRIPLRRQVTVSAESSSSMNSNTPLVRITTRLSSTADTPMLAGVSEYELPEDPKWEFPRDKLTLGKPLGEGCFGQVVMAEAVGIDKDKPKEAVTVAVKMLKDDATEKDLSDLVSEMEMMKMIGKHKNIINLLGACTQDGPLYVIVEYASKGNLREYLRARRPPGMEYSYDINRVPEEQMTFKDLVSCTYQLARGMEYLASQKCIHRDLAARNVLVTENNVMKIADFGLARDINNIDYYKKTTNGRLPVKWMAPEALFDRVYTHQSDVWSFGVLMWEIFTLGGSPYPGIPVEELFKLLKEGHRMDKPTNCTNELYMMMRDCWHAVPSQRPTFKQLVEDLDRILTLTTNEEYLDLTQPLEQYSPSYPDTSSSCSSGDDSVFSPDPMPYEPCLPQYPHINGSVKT
Experimental: FIGS. 14A-D show pharmacological intervention in FGFR activation. (C) Structure of [4-(3,5-difluorophenyl)-1H-pyrrolo[2,3-b]pyridin-3-yl](3-methoxyphenyl)methanone (PLX052). (D) 3T3-cells treated for 5 minutes with PLX052 were ligand stimulated for 5 minutes at 37° C. Cell lysates were subjected to immunoprecipitation with anti-FLAG tag antibodies (the expression vector contains a tag in the c-terminus of FGFR2) followed by immunoblotting with either anti-phosphotyrosine (pTyr) or anti-FLAG antibodies. (A & B) Crystals of the apo-FGFR1 minimal kinase domain were grown at 4° C. by vapor diffusion in hanging drops containing 2 uL of 12 mg/mL protein solution and 2 uL of reservoir solution: 16% PEG8K, 0.25 M (NH4)2SO4, 5% ethylene glycol, 10 mM DTT, and 0.1 M Bis Tris, pH 5.8. Native crystals were soaked overnight at 4° C. in mother liquor containing 2 mM PLX052 and 5% DMSO. Complexed crystal belongs to monoclinic space group C2 and has unit cell dimensions a=211.9 Å, b=49.7 Å, c=66.2 Å, and β=107.4°. One cryo-cooled crystal was used for data collection, and data was collected at beamline X26 at Brookhaven National Laboratory. Co-crystallization of the kinase with PLX052 was also performed and found the same structural result. […] The nucleotide binding loop is shown in blue, the hinge region in magenta, and the catalytic core in yellow. (A) The side chains that interact with PLX052. […]

[8] = 1 μM, E18.5 calvaria cultured 14 days

SMILES | tyrosine phosphorylation of FRS2α [1] | MAP Kinase signaling [2] | phosphorylation of FRS2α [3] | premature fusion of coronal suture in mutant calvaria in vitro [4, 8] | premature fusion of coronal suture of mutant mice calvaria ([4]; 1 μM) | premature fusion of coronal suture of mutant mice calvaria ([4]; 5 μM) | concentration causing extensive cell death [5] | growth of the wild type suture [6, 8] | normal development of the sutures in the wild type ([6]; 1 μM) | normal development of the sutures in the wild type ([6]; 5 μM) | concentration that inhibits FGFR activation to basal levels (tyrosine autophosphorylation of FGFR2) [7]
COc1cccc(-c2cc(=O)c3ccccc3o2)c1N [PD 0980089] | leads to constitutive tyrosine phosphorylation of FRS2α |  |  |  |  |  |  |  |  |  | 
COc1cccc(C(=O)c2c[nH]c3nccc(-c4cc(F)cc(F)c4)c23)c1 [PLX052, [4-(3,5-difluorophenyl)-1H-pyrrolo[2,3-b]pyridin-3-yl](3-methoxyphenyl)methanone] |  | attenuated MAP Kinase signaling | significant reduction in the phosphorylation of FRS2α | able to rescue the premature fusion of coronal suture; also recorded: open suture in the mutant cultured with PLX052 | able to prevent the premature fusion of coronal suture | able to prevent the premature fusion of coronal suture | ≥ 50 µM | did not affect the growth of the wild type suture | without affecting the normal development of the sutures in the wild type | without affecting the normal development of the sutures in the wild type | 10 µM
